Results published in ChEMBL document CHEMBL4359898, “Pyrazolo-benzothiazole hybrids: Synthesis, anticancer properties and evaluation of antiangiogenic activity using in vitro VEGFR-2 kinase and in vivo transgenic zebrafish model” (Eur J Med Chem, 2019).

Assays:
U-87 MG = test: Cytotoxicity against human U87MG cells assessed as reduction in cell viability incubated for 72 hrs by MTT assay
HT-29 = test: Cytotoxicity against human HT-29 cells assessed as reduction in cell viability incubated for 72 hrs by MTT assay; details: HT-29, 72 h
PC-3 = test: Cytotoxicity against human PC3 cells assessed as reduction in cell viability incubated for 72 hrs by MTT assay; details: PC-3, 72 h
HEK-293T = test: Cytotoxicity against HEK293T cells assessed as reduction in cell viability incubated for 72 hrs by MTT assay; details: Homo sapiens
A549 = test: Cytotoxicity against human A549 cells assessed as reduction in cell viability incubated for 72 hrs by MTT assay; details: A549, 72 h

Structure (SMILES): Cc1ccc2nc(NC(=O)c3cn(-c4ccccc4)nc3-c3ccccc3)sc2c1
- IC50 (U-87 MG): 23.2 µM
- IC50 (HT-29): > 50 µM
- IC50 (PC-3): 15.7 µM
- IC50 (HEK-293T): > 50 µM
- IC50 (A549): 26.5 µM

Structure (SMILES): COc1ccc(-c2nn(-c3ccccc3)cc2C(=O)Nc2nc3ccc(C)cc3s2)cc1
- IC50 (U-87 MG): > 50 µM
- IC50 (HT-29): 21.5 µM
- IC50 (PC-3): 15.9 µM
- IC50 (HEK-293T): > 50 µM
- IC50 (A549): 27.7 µM

Structure (SMILES): Cc1ccc2nc(NC(=O)c3cn(-c4ccccc4)nc3-c3ccc(Cl)cc3)sc2c1
- IC50 (U-87 MG): 33.2 µM
- IC50 (HT-29): 23.7 µM
- IC50 (PC-3): 14.5 µM
- IC50 (HEK-293T): 35.6 µM
- IC50 (A549): 18.6 µM

Structure (SMILES): O=C(Nc1nc2ccc(F)cc2s1)c1cn(-c2ccccc2)nc1-c1ccccc1
- IC50 (U-87 MG): 5.57 µM
- IC50 (HT-29): 9.8 µM
- IC50 (PC-3): 3.25 µM
- IC50 (HEK-293T): 17.6 µM
- IC50 (A549): 10.2 µM

Structure (SMILES): COc1ccc(-c2nn(-c3ccccc3)cc2C(=O)Nc2nc3ccc(Cl)cc3s2)cc1
- IC50 (U-87 MG): 8.71 µM
- IC50 (HT-29): 6.57 µM
- IC50 (PC-3): 6.51 µM
- IC50 (HEK-293T): 12.6 µM
- IC50 (A549): 4.71 µM

Structure (SMILES): O=C(Nc1nc2ccccc2s1)c1cn(-c2ccccc2)nc1-c1ccc(Cl)cc1
- IC50 (U-87 MG): 11.5 µM
- IC50 (HT-29): 13.7 µM
- IC50 (PC-3): 7.75 µM
- IC50 (HEK-293T): 39.6 µM
- IC50 (A549): 10.3 µM

Structure (SMILES): Cc1ccc2nc(NC(=O)c3cn(-c4ccccc4)nc3-c3ccc(F)cc3)sc2c1
- IC50 (U-87 MG): > 50 µM
- IC50 (HT-29): 22.9 µM
- IC50 (PC-3): 20.5 µM
- IC50 (HEK-293T): > 50 µM
- IC50 (A549): 24.6 µM

Structure (SMILES): O=C(Nc1nc2ccc(Cl)cc2s1)c1cn(-c2ccccc2)nc1-c1ccccc1
- IC50 (U-87 MG): 4.98 µM
- IC50 (HT-29): 7.81 µM
- IC50 (PC-3): 3.69 µM
- IC50 (HEK-293T): 21.3 µM
- IC50 (A549): 7.67 µM

Structure (SMILES): O=C(Nc1nc2ccc(Cl)cc2s1)c1cn(-c2ccccc2)nc1-c1ccc(Cl)cc1
- IC50 (U-87 MG): 5.87 µM
- IC50 (HT-29): 4.55 µM
- IC50 (PC-3): 3.23 µM
- IC50 (HEK-293T): 15.7 µM
- IC50 (A549): 4.36 µM

Structure (SMILES): O=C(Nc1nc2ccccc2s1)c1cn(-c2ccccc2)nc1-c1ccc(F)cc1
- IC50 (U-87 MG): 10.7 µM
- IC50 (HT-29): 9.06 µM
- IC50 (PC-3): 7.13 µM
- IC50 (HEK-293T): 33.4 µM
- IC50 (A549): 9.01 µM

Structure (SMILES): COc1ccc(-c2nn(-c3ccccc3)cc2C(=O)Nc2nc3ccc(F)cc3s2)cc1
- IC50 (U-87 MG): 8.99 µM
- IC50 (HT-29): 5.56 µM
- IC50 (PC-3): 4.93 µM
- IC50 (HEK-293T): 15.4 µM
- IC50 (A549): 7.56 µM
